Kapp data for 7 compounds are collected here from ChEMBL document CHEMBL1139855, “Molecular recognition of DNA by rigid [N]-polynorbornane-derived bifunctional intercalators: synthesis and evaluation of their binding properties” (J Med Chem, 2007).

One experiment deals with Escherichia coli. Nature of the experiment: Binding affinity at Escherichia coli double stranded DNA by competition dialysis assay.
A further experiment has as its system Triticum aestivum. The experiment can be described thus: Binding affinity at wheat germ single stranded RNA by competition assay.
The next experiment deals with DNA. Nature of the experiment: Binding affinity at calf thymus double stranded DNA by competition dialysis assay. To be noted: Bos taurus. It counts as nucleic-acid assay.
Experiment [1] can be described thus: Binding affinity at poly (dAdT). poly (dAdT) dsDNA polynucleotide by competition dialysis assay.
A short description of experiment [2]: Binding affinity at polyA.Poly U dsRNA polynucleotide by competition dialysis assay.
A short description of experiment [3]: Binding affinity at poly(dA).poly(dT) dsDNA polynucleotide by competition dialysis assay.
Experiment [4] can be described thus: Binding affinity at poly (dGdC). poly (dGdC) dsDNA polynucleotide by competition dialysis assay.
The nature of experiment [5]: Binding affinity at polyA ssRNA by competition dialysis assay.

For `COC(=O)C12OC(C(=O)OC)(C3C4CC(C5C(=O)N(CCNc6c7ccccc7nc7ccccc67)C(=O)C45)C31)C1C3CC(C4C(=O)N(CCNc5c6ccccc6nc6ccccc56)C(=O)C34)C12` (stereo unspecified), the Kapp in the experiment on Escherichia coli was 32.8 10^3/M; with Triticum aestivum, 8.8 10^3/M; with DNA it was 30.4 10^3/M; in experiment [1], 38.9 10^3/M; in experiment [2] it was 19.2 10^3/M; in experiment [3] it was 16.4 10^3/M. Further, the Kapp in experiment [4] is 28.4 10^3/M; in experiment [5], 2.93 10^3/M.
On to `FC(F)(F)C12OC(C(F)(F)F)(C3C4CC(C5CN(CCNc6c7ccccc7nc7ccccc67)CC54)C31)C1C3CC(C4CN(CCNc5c6ccccc6nc6ccccc56)CC43)C12` (stereo unspecified), for which the Kapp in the experiment with Escherichia coli was 19.1 10^3/M; with Triticum aestivum it was 0.53 10^3/M; with DNA, 20.3 10^3/M; in experiment [1] it was 29.5 10^3/M; in experiment [2] it was 0.53 10^3/M; in experiment [3] it was 19.6 10^3/M. Moreover, the Kapp in experiment [4] is 27.6 10^3/M; in experiment [5], 1.73 10^3/M.
On to `COC(=O)C12OC(C(=O)OC)(C3C4CC(C5C(=O)N(CCNc6c7ccccc7nc7ccccc67)C(=O)C45)C31)C1C3CC(C12)C1C3C2(C(=O)OC)OC1(C(=O)OC)C1C3CC(C4C(=O)N(CCNc5c6ccccc6nc6ccccc56)C(=O)C34)C12` (stereo unspecified), for which the Kapp in the experiment with Escherichia coli is 25.7 10^3/M; in the experiment on Triticum aestivum it was 5.33 10^3/M; with DNA, 30.4 10^3/M; in experiment [1] it was 31.7 10^3/M; in experiment [2] it was 25.5 10^3/M; in experiment [3] it was 23.7 10^3/M. Further, the results for the Kapp in experiment [4] and in experiment [5] were 26.4 10^3/M and 1.47 10^3/M, respectively.
Consider `O=C1C2C3C=CC(C3)C2C(=O)N1CCNc1c2ccccc2nc2ccccc12` (stereo unspecified), for which the Kapp was 3.47 10^3/M with Escherichia coli; 2.4 10^3/M in the experiment on Triticum aestivum; 6.27 10^3/M with DNA; 12.1 10^3/M in experiment [1]; 1.47 10^3/M in experiment [2]; 0.53 10^3/M in experiment [3]. For the same compound, the values for the Kapp in experiment [4] and in experiment [5] were 3.47 10^3/M and 0 10^3/M, respectively.
Turning to `COC(=O)C12OC(C(=O)OC)(C3C4CC(C5C(=O)N(CCNC(=O)c6cccc7cc8ccccc8nc67)C(=O)C45)C31)C1C3CC(C4C(=O)N(CCNc5c6ccccc6nc6ccccc56)C(=O)C34)C12` (stereo unspecified), the Kapp with Escherichia coli is 12.9 10^3/M; with Triticum aestivum, 0.27 10^3/M; in the experiment on DNA it was 23.1 10^3/M; in experiment [1] it was 29.5 10^3/M; in experiment [2], 0.27 10^3/M; in experiment [3], 0.8 10^3/M. Also, the Kapp in experiment [4] was 15.6 10^3/M; in experiment [5], 0.27 10^3/M.
As to `COC(=O)C12OC(C(=O)OC)(C3C4CC(C5C(=O)N(CCNc6c7ccccc7nc7ccccc67)C(=O)C45)C31)C1C3CC(C4C(=O)N(CCN5C(=O)c6cccc7cccc(c67)C5=O)C(=O)C34)C12` (stereo unspecified), the Kapp is 14.9 10^3/M with Escherichia coli; 7.6 10^3/M in the experiment on Triticum aestivum; 8.13 10^3/M in the experiment with DNA; 14.4 10^3/M in experiment [1]; 0.8 10^3/M in experiment [2]; 3.87 10^3/M in experiment [3]. The Kapp is 8.13 10^3/M in experiment [4] and 0.8 10^3/M in experiment [5].
`COC(=O)C12OC(C(=O)OC)(C3C4CC(C5C(=O)N(CCNC(=O)c6cccc7cc8ccccc8nc67)C(=O)C45)C31)C1C3CC(C4C(=O)N(CCNC(=O)c5cccc6cc7ccccc7nc56)C(=O)C34)C12` (stereo unspecified): the Kapp was 6.8 10^3/M in the experiment on Escherichia coli; 0.53 10^3/M with Triticum aestivum; 16 10^3/M in the experiment with DNA; 13.9 10^3/M in experiment [1]; 8.27 10^3/M in experiment [2]; 6.8 10^3/M in experiment [3]. Besides, the Kapp was 9.6 10^3/M in experiment [4] and 0.53 10^3/M in experiment [5].
